In ChEMBL document CHEMBL3046559, “Sterile oat (Avena sterilis L.) cross-resistance profile to ACCase-inhibiting herbicides in Greece” (2012):

Assays:
Format in all cases: functional
Avena sterilis [1] = assay: Herbicidal activity against Avena sterilis accession P04 assessed as weed survival at 4 times field recommended herbicide dose
Avena sterilis [2] = assay: Herbicidal activity against Avena sterilis accession P13S assessed as weed survival at 1/4 times field recommended herbicide dose
Avena sterilis [3] = assay: Herbicidal activity against Avena sterilis accession P19S assessed as weed survival at 1/32 times field recommended herbicide dose
Avena sterilis [4] = assay: Herbicidal activity against Avena sterilis accession P07 assessed as induction of weed mortality
Avena sterilis [5] = assay: Herbicidal activity against Avena sterilis accession P09 assessed as weed survival at 16 times field recommended herbicide dose
Avena sterilis [6] = assay: Herbicidal activity against Avena sterilis accession P09 assessed as weed survival at 1 times field recommended herbicide dose
Avena sterilis [7] = assay: Herbicidal activity against Avena sterilis accession P12 assessed as weed survival at 32 times field recommended herbicide dose
Avena sterilis [8] = assay: Herbicidal activity against Avena sterilis accession P21S assessed as weed survival at 1/32 times field recommended herbicide dose
Avena sterilis [9] = assay: Herbicidal activity against Avena sterilis accession P14 assessed as induction of weed mortality
Avena sterilis [10] = assay: Herbicidal activity against Avena sterilis accession P17 assessed as weed survival at 1 times field recommended herbicide dose
Avena sterilis [11] = assay: Herbicidal activity against Avena sterilis accession P16 assessed as weed survival at 1 times field recommended herbicide dose
Avena sterilis [12] = assay: Herbicidal activity against Avena sterilis accession P02 assessed as weed survival at 16 times field recommended herbicide dose
Avena sterilis [13] = assay: Herbicidal activity against Avena sterilis accession P03 assessed as weed survival at 32 times field recommended herbicide dose
Avena sterilis [14] = assay: Herbicidal activity against Avena sterilis accession P15 assessed as weed survival at 8 times field recommended herbicide dose
Avena sterilis [15] = assay: Herbicidal activity against Avena sterilis accession P21S assessed as weed survival at 1/8 times field recommended herbicide dose
Avena sterilis [16] = assay: Herbicidal activity against Avena sterilis accession P20 assessed as weed survival at 4 times field recommended herbicide dose
Avena sterilis [17] = assay: Herbicidal activity against Avena sterilis accession P16 assessed as weed survival at 4 times field recommended herbicide dose
Avena sterilis [18] = assay: Herbicidal activity against Avena sterilis accession P06S assessed as weed survival at 1/32 times field recommended herbicide dose
Avena sterilis [19] = assay: Herbicidal activity against Avena sterilis accession P10S assessed as weed survival at 1/16 times field recommended herbicide dose
Avena sterilis [20] = assay: Herbicidal activity against Avena sterilis accession P06S assessed as weed survival at 1 times field recommended herbicide dose
Avena sterilis [21] = assay: Herbicidal activity against Avena sterilis accession P03 assessed as induction of weed mortality
Avena sterilis [22] = assay: Herbicidal activity against Avena sterilis accession P10S assessed as weed survival at 1/8 times field recommended herbicide dose
Avena sterilis [23] = assay: Herbicidal activity against Avena sterilis accession P19S assessed as weed survival at 1/8 times field recommended herbicide dose
Avena sterilis [24] = assay: Herbicidal activity against Avena sterilis accession P10S assessed as weed survival at 1 times field recommended herbicide dose
Avena sterilis [25] = assay: Herbicidal activity against Avena sterilis accession P19S assessed as induction of weed mortality
Avena sterilis [26] = assay: Herbicidal activity against Avena sterilis accession P08 assessed as weed survival at 8 times field recommended herbicide dose
Avena sterilis [27] = assay: Herbicidal activity against Avena sterilis accession P08 assessed as induction of weed mortality
Avena sterilis [28] = assay: Herbicidal activity against Avena sterilis accession P11 assessed as weed survival at 8 times field recommended herbicide dose
Avena sterilis [29] = assay: Herbicidal activity against Avena sterilis accession P02 assessed as weed survival at 32 times field recommended herbicide dose
Avena sterilis [30] = assay: Herbicidal activity against Avena sterilis accession P17 assessed as induction of weed mortality
Avena sterilis [31] = assay: Herbicidal activity against Avena sterilis accession P17 assessed as weed survival at 4 times field recommended herbicide dose
Avena sterilis [32] = assay: Herbicidal activity against Avena sterilis accession P08 assessed as weed survival at 16 times field recommended herbicide dose
Avena sterilis [33] = assay: Herbicidal activity against Avena sterilis accession P01 assessed as weed survival at 4 times field recommended herbicide dose
Avena sterilis [34] = assay: Herbicidal activity against Avena sterilis accession P03 assessed as weed survival at 8 times field recommended herbicide dose
Avena sterilis [35] = assay: Herbicidal activity against Avena sterilis accession P17 assessed as weed survival at 16 times field recommended herbicide dose
Avena sterilis [36] = assay: Herbicidal activity against Avena sterilis accession P21S assessed as weed survival at 1/16 times field recommended herbicide dose
Avena sterilis [37] = assay: Herbicidal activity against Avena sterilis accession P16 assessed as induction of weed mortality
Avena sterilis [38] = assay: Herbicidal activity against Avena sterilis accession P05 assessed as induction of weed mortality
Avena sterilis [39] = assay: Herbicidal activity against Avena sterilis accession P14 assessed as weed survival at 1 times field recommended herbicide dose
Avena sterilis [40] = assay: Herbicidal activity against Avena sterilis accession P12 assessed as weed survival at 16 times field recommended herbicide dose
Avena sterilis [41] = assay: Herbicidal activity against Avena sterilis accession P09 assessed as induction of weed mortality
Avena sterilis [42] = assay: Herbicidal activity against Avena sterilis accession P21S assessed as weed survival at 1/4 times field recommended herbicide dose
Avena sterilis [43] = assay: Herbicidal activity against Avena sterilis accession P20 assessed as induction of weed mortality
Avena sterilis [44] = assay: Herbicidal activity against Avena sterilis accession P17 assessed as weed survival at 32 times field recommended herbicide dose
Avena sterilis [45] = assay: Herbicidal activity against Avena sterilis accession P18 assessed as weed survival at 1 times field recommended herbicide dose
Avena sterilis [46] = assay: Herbicidal activity against Avena sterilis accession P11 assessed as induction of weed mortality
Avena sterilis [47] = assay: Herbicidal activity against Avena sterilis accession P11 assessed as weed survival at 4 times field recommended herbicide dose
Avena sterilis [48] = assay: Herbicidal activity against Avena sterilis accession P02 assessed as weed survival at 4 times field recommended herbicide dose
Avena sterilis [49] = assay: Herbicidal activity against Avena sterilis accession P02 assessed as induction of weed mortality
Avena sterilis [50] = assay: Herbicidal activity against Avena sterilis accession P10S assessed as induction of weed mortality
Avena sterilis [51] = assay: Herbicidal activity against Avena sterilis accession P22 assessed as weed survival at 32 times field recommended herbicide dose
Avena sterilis [52] = assay: Herbicidal activity against Avena sterilis accession P20 assessed as weed survival at 1 times field recommended herbicide dose
Avena sterilis [53] = assay: Herbicidal activity against Avena sterilis accession P20 assessed as weed survival at 8 times field recommended herbicide dose
Avena sterilis [54] = assay: Herbicidal activity against Avena sterilis accession P13S assessed as weed survival at 1 times field recommended herbicide dose
Avena sterilis [55] = assay: Herbicidal activity against Avena sterilis accession P11 assessed as weed survival at 32 times field recommended herbicide dose
Avena sterilis [56] = assay: Herbicidal activity against Avena sterilis accession P01 assessed as induction of weed mortality
Avena sterilis [57] = assay: Herbicidal activity against Avena sterilis accession P16 assessed as weed survival at 8 times field recommended herbicide dose
Avena sterilis [58] = assay: Herbicidal activity against Avena sterilis accession P07 assessed as weed survival at 1 times field recommended herbicide dose
Avena sterilis [59] = assay: Herbicidal activity against Avena sterilis accession P03 assessed as weed survival at 16 times field recommended herbicide dose

SMILES: CCc1cc(C)cc(CC)c1-c1c(OC(=O)C(C)(C)C)n2n(c1=O)CCOCC2 [PINOXADEN]
- Survival (Avena sterilis [1]): 20%
- Survival (Avena sterilis [2]): 3%
- Survival (Avena sterilis [3]): 100%
- GR50 (Avena sterilis [4]): <40 gAi/ha
- Survival (Avena sterilis [5]): 0%
- Survival (Avena sterilis [6]): 0%
- Survival (Avena sterilis [7]): 0%
- Survival (Avena sterilis [8]): 100%
- GR50 (Avena sterilis [9]): <40 gAi/ha
- Survival (Avena sterilis [10]): 0%
- Survival (Avena sterilis [11]): 0%
- Survival (Avena sterilis [12]): 0%
- Survival (Avena sterilis [13]): 0%
- Survival (Avena sterilis [14]): 0%
- Survival (Avena sterilis [15]): 57%
- Survival (Avena sterilis [16]): 0%
- Survival (Avena sterilis [17]): 0%
- Survival (Avena sterilis [18]): 97%
- Survival (Avena sterilis [19]): 97%
- Survival (Avena sterilis [20]): 0%
- GR50 (Avena sterilis [21]): <40 gAi/ha
- Survival (Avena sterilis [22]): 20%
- Survival (Avena sterilis [23]): 50%
- Survival (Avena sterilis [24]): 0%
- GR50 (Avena sterilis [25]): 6.6 gAi/ha
- Survival (Avena sterilis [26]): 0%
- GR50 (Avena sterilis [27]): <40 gAi/ha
- Survival (Avena sterilis [28]): 0%
- Survival (Avena sterilis [29]): 0%
- GR50 (Avena sterilis [30]): <40 gAi/ha
- Survival (Avena sterilis [31]): 0%
- Survival (Avena sterilis [32]): 0%
- Survival (Avena sterilis [33]): 17%
- Survival (Avena sterilis [34]): 0%
- Survival (Avena sterilis [35]): 0%
- Survival (Avena sterilis [36]): 97%
- GR50 (Avena sterilis [37]): <40 gAi/ha
- GR50 (Avena sterilis [38]): <40 gAi/ha
- Survival (Avena sterilis [39]): 0%
- Survival (Avena sterilis [40]): 0%
- GR50 (Avena sterilis [41]): <40 gAi/ha
- Survival (Avena sterilis [42]): 20%
- GR50 (Avena sterilis [43]): 42 gAi/ha
- Survival (Avena sterilis [44]): 0%
- Survival (Avena sterilis [45]): 0%
- GR50 (Avena sterilis [46]): <40 gAi/ha
- Survival (Avena sterilis [47]): 0%
- Survival (Avena sterilis [48]): 0%
- GR50 (Avena sterilis [49]): <40 gAi/ha
- GR50 (Avena sterilis [50]): 4.1 gAi/ha
- Survival (Avena sterilis [51]): 0%
- Survival (Avena sterilis [52]): 63%
- Survival (Avena sterilis [53]): 0%
- Survival (Avena sterilis [54]): 0%
- Survival (Avena sterilis [55]): 0%
- GR50 (Avena sterilis [56]): <40 gAi/ha
- Survival (Avena sterilis [57]): 0%
- Survival (Avena sterilis [58]): 0%
- Survival (Avena sterilis [59]): 0%

SMILES: CCO/N=C(\CC)C1=C(O)CC(c2c(C)cc(C)cc2C)CC1=O (stereo not drawn) [TRALKOXYDIM]
- Survival (Avena sterilis [1]): 77%
- Survival (Avena sterilis [2]): 20%
- Survival (Avena sterilis [3]): 100%
- GR50 (Avena sterilis [4]): <400 gAi/ha
- Survival (Avena sterilis [5]): 0%
- Survival (Avena sterilis [6]): 60%
- Survival (Avena sterilis [7]): 0%
- Survival (Avena sterilis [8]): 100%
- GR50 (Avena sterilis [9]): <400 gAi/ha
- Survival (Avena sterilis [10]): 50%
- Survival (Avena sterilis [11]): 77%
- Survival (Avena sterilis [12]): 0%
- Survival (Avena sterilis [13]): 17%
- Survival (Avena sterilis [14]): 20%
- Survival (Avena sterilis [15]): 77%
- Survival (Avena sterilis [16]): 80%
- Survival (Avena sterilis [17]): 30%
- Survival (Avena sterilis [18]): 80%
- Survival (Avena sterilis [19]): 40%
- Survival (Avena sterilis [20]): 0%
- GR50 (Avena sterilis [21]): 1561 gAi/ha
- Survival (Avena sterilis [22]): 30%
- Survival (Avena sterilis [23]): 93%
- Survival (Avena sterilis [24]): 0%
- GR50 (Avena sterilis [25]): 11 gAi/ha
- Survival (Avena sterilis [26]): 17%
- GR50 (Avena sterilis [27]): 781 gAi/ha
- Survival (Avena sterilis [28]): 0%
- Survival (Avena sterilis [29]): 0%
- GR50 (Avena sterilis [30]): 412 gAi/ha
- Survival (Avena sterilis [31]): 20%
- Survival (Avena sterilis [32]): 0%
- Survival (Avena sterilis [33]): 43%
- Survival (Avena sterilis [34]): 20%
- Survival (Avena sterilis [35]): 0%
- Survival (Avena sterilis [36]): 80%
- GR50 (Avena sterilis [37]): 907 gAi/ha
- GR50 (Avena sterilis [38]): <400 gAi/ha
- Survival (Avena sterilis [39]): 0%
- Survival (Avena sterilis [40]): 0%
- GR50 (Avena sterilis [41]): 532 gAi/ha
- Survival (Avena sterilis [42]): 33%
- GR50 (Avena sterilis [43]): 2916 gAi/ha
- Survival (Avena sterilis [44]): 0%
- Survival (Avena sterilis [45]): 20%
- GR50 (Avena sterilis [46]): <400 gAi/ha
- Survival (Avena sterilis [47]): 0%
- Survival (Avena sterilis [48]): 40%
- GR50 (Avena sterilis [49]): 1073 gAi/ha
- GR50 (Avena sterilis [50]): 29 gAi/ha
- Survival (Avena sterilis [51]): 0%
- Survival (Avena sterilis [52]): 97%
- Survival (Avena sterilis [53]): 40%
- Survival (Avena sterilis [54]): 0%
- Survival (Avena sterilis [55]): 0%
- GR50 (Avena sterilis [56]): 766 gAi/ha
- Survival (Avena sterilis [57]): 17%
- Survival (Avena sterilis [58]): 23%
- Survival (Avena sterilis [59]): 20%
